Data on 24 compounds can be found in patent publication US20120101083A1, “S1P1 AGONISTS COMPRISING A BICYCLIC N-CONTAINING RING” (GLAXO GROUP LIMITED, priority 2009, published 2012).

The EC50 is the concentration that produces a half-maximal response. Higher therefore signals a less potent agent.

Each structure is given as a SMILES string. Where a name gives a salt, the structure may show the parent alone.

In the first test the target is T1, S1P1 receptor (S1P1 expressing RH7777 membranes) (Homo sapiens, UniProt P21453).
T1 construct: expressed in transfected cells; host or cells: RH7777 cells (membranes)
T1 sequence (P21453 whole entry): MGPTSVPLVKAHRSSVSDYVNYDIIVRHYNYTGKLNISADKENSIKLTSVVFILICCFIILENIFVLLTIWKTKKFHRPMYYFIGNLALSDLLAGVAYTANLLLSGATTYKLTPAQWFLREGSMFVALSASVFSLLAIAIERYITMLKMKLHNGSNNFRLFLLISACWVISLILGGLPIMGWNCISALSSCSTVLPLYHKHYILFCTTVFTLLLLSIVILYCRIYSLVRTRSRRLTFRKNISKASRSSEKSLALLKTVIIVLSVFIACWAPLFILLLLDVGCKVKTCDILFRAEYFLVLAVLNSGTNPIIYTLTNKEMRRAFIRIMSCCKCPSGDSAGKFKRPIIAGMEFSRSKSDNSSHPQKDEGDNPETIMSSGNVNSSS
The test can be described thus: S1P1 GTPγS assay. It counts as biochemical. The conditions noted are these: S1P1 GTPγS assay, first format, [35S]-GTPγS 0.5 nM. On the procedure:
The potencies and efficacies of the compounds of this invention for the S1P1 receptor can be determined by GTPγS assay performed on the human cloned receptor as described herein.
Membrane preparation for S1P1 GTPγS assay
All steps were performed at 4° C. Cells were homogenised within a glass Waring blender for 2 bursts of 15 secs in 200 mls of buffer (50 mM HEPES, 1 mM leupeptin, 25 μg/ml bacitracin, 1 mM EDTA, 1 mM PMSF, 2 μM pepstatin A). The blender was plunged into ice for 5 mins after the first burst and 10-40 mins after the final burst to allow foam to dissipate. The material was then spun at 500 g for 20 mins and the supernatant spun for 36 mins at 48,000 g. The pellet was resuspended in the same buffer as above but without PMSF and pepstatin A. The material was then forced through a 0.6 mm needle, made up to the required volume, (usually x4 the volume of the original cell pellet), aliquoted and stored frozen at −80° C.
S1P1 expressing RH7777 membranes (1.5 μg/well) membranes (1.5 μg/well) were homogenised by passing through a 23 G needle. These were then adhered to WGA-coated SPA beads (0.125 mg/well) in assay buffer (HEPES 20 mM, MgCl2 10 mM, NaCl 100 mM and pH adjusted to 7.4 using KOH 5M). GDP 10 μM FAC and saponin 90 μg/ml FAC were also added
After 30 minutes precoupling on ice, the bead and membrane suspension was dispensed into white Greiner polypropylene LV 384-well plates (5 μl/well), containing […] of compound. 5 μl/well [^35S]-GTPγS (0.5 nM for S1P1 or 0.3 nM for S1P3 final radioligand concentration) made in assay buffer was then added to the plates. The final assay cocktail (10.1 μl) was then sealed, spun on a centrifuge, then read immediately on a Viewlux instrument.
Alternatively, after 30 minutes precoupling on ice, the bead and membrane suspension was mixed with ^35S]-GTPγS (0.5 nM final radioligand concentration) in assay buffer (HEPES 20 mM, MgCl2 10 mM, NaCl 100 mM and pH adjusted to 7.4 using KOH 5M) in a 1:1 ratio. The bead, membrane and radioligand suspension was dispensed into white Greiner polypropylene low volume 384-well plates (10 μl/well), containing 0.1 μl of a solution of test compound in 100% DMSO. The final assay cocktail (10.1 μl) was then sealed, spun on a centrifuge, then read immediately on a Viewlux instrument.
For `Cc1c(-c2nnc(-c3ccc(OC(C)C)c(C#N)c3)s2)ccc2c1CCN(CC(O)CO)C2` (stereo not shown) [Example 18, 5-{5-[2-(2,3-Dihydroxypropyl)-5-methyl-1,2,3,4-tetrahydro-6-isoquinolinyl]-1,3,4-thiadiazol-2-yl}-2-[(1-methylethyl)oxy]benzonitrile], the 50% effective concentration (EC50) was 2000 nM.

The same test, now with this note: tested in one of the above S1P1 assays (two GTPγS formats).
`CC(C)Oc1ccc(-c2nc(-c3cccc4c3CCN(CC(N)=O)CC4)no2)cc1C#N` [Example 31, 2-[6-(5-{3-Cyano-4-[(1-methylethyl)oxy]phenyl}-1,2,4-oxadiazol-3-yl)-1,2,4,5-tetrahydro-3H-3-benzazepin-3-yl]acetamide] showed an EC50 of no more than 1000 nM.

Take `CC(C)Oc1ncc(-c2nc(-c3ccc4c(c3)CCN(CC(O)CO)CC4)no2)cc1C#N` (stereo in doubt) [Example 97, 5-(3-{3-[(2R)-2,3-dihydroxypropyl]-2,3,4,5-tetrahydro-1H-3-benzazepin-7-yl}-1,2,4-oxadiazol-5-yl)-2-[(1-methylethyl)oxy]-3-pyridinecarbonitrile]: the EC50 was no more than 100 nM.

The compound `CC(C)Oc1ccc(-c2nc(-c3ccc4c(c3)CCN(C(=O)CCCN)CC4)no2)cc1C#N` [Example 63, 5-{3-[3-(4-aminobutanoyl)-2,3,4,5-tetrahydro-1H-3-benzazepin-7-yl]-1,2,4-oxadiazol-5-yl}-2-[(1-methylethyl)oxy]benzonitrile] showed an EC50 of no more than 100 nM.

Regarding `CC(C)Oc1ccc(-c2nc(-c3ccc4c(c3)CCN(C(=O)CN3CCOCC3)CC4)no2)cc1C#N` [Example 91, 2-[(1-methylethyl)oxy]-5-{3-[3-(4-morpholinylacetyl)-2,3,4,5-tetrahydro-1H-3-benzazepin-7-yl]-1,2,4-oxadiazol-5-yl}benzonitrile hydrochloride], the concentration giving a half-maximal response (EC50) is no more than 1000 nM.

`Cc1c(-c2nnc(-c3ccc(OC(C)C)c(C#N)c3)s2)ccc2c1CCN(CC(O)CO)C2` (stereo not shown) [Example 18, 5-{5-[2-(2,3-Dihydroxypropyl)-5-methyl-1,2,3,4-tetrahydro-6-isoquinolinyl]-1,3,4-thiadiazol-2-yl}-2-[(1-methylethyl)oxy]benzonitrile] gave a concentration giving a half-maximal response (EC50) greater than 10000 nM.

`CCOc1ncc(-c2nc(-c3ccc4c(c3)CCN(C(CO)CO)CC4)no2)cc1C#N` [Example 110, 2-(ethyloxy)-5-(3-{3-[2-hydroxy-1-(hydroxymethyl)ethyl]-2,3,4,5-tetrahydro-1H-3-benzazepin-7-yl}-1,2,4-oxadiazol-5-yl)-3-pyridinecarbonitrile] gave a half-maximal effective concentration (EC50) of no more than 1000 nM.

In the case of `CC(C)Oc1ccc(-c2nc(-c3ccc4c(c3)CCN(C(=O)CNCCO)CC4)no2)cc1C#N` [Example 86, 5-(3-{3-[N-(2-hydroxyethyl)glycyl]-2,3,4,5-tetrahydro-1H-3-benzazepin-7-yl}-1,2,4-oxadiazol-5-yl)-2-[(1-methylethyl)oxy]benzonitrile hydrochloride], the EC50 was no more than 100 nM.

The compound `N#Cc1cc(-c2nc(-c3ccc4c(c3)CCN(C(=O)CN)CC4)no2)ccc1N1CC(F)C1` [Example 94, 2-(3-fluoro-1-azetidinyl)-5-[3-(3-glycyl-2,3,4,5-tetrahydro-1H-3-benzazepin-7-yl)-1,2,4-oxadiazol-5-yl]benzonitrile] gave a concentration for a half-maximal effect (EC50) of no more than 1000 nM.

As to `CC(C)Oc1ccc(-c2nnc(-c3ccc4c(c3)CCN(CCO)CC4)s2)cc1C#N` [Example 28, 5-{5-[3-(2-Hydroxyethyl)-2,3,4,5-tetrahydro-1H-3-benzazepin-7-yl]-1,3,4-thiadiazol-2-yl}-2-[(1-methylethyl)oxy]benzonitrile hydrochloride], the 50% effective concentration (EC50) was no more than 1000 nM.

`CNC(=O)CCN1CCc2c(cccc2-c2nnc(-c3ccc(OC(C)C)c(C#N)c3)s2)C1` [Example 45, 3-[5-(5-{3-cyano-4-[(1-methylethyl)oxy]phenyl}-1,3,4-thiadiazol-2-yl)-3,4-dihydro-2(1H)-isoquinolinyl]-N-methylpropanamide] showed an EC50 greater than 10000 nM.

Turning to `CC(C)Oc1ccc(-c2nc(-c3cccc4c3CCN(CCO)CC4)no2)cc1C#N` [Example 34, 5-{3-[3-(2-Hydroxyethyl)-2,3,4,5-tetrahydro-1H-3-benzazepin-6-yl]-1,2,4-oxadiazol-5-yl}-2-[(1-methylethyl)oxy]benzonitrile], the EC50 is no more than 100 nM.

Take `CNCCCC(=O)N1CCc2ccc(-c3noc(-c4ccc(OC(C)C)c(C#N)c4)n3)cc2CC1` [Example 83, 5-(3-{3-[4-(methylamino)butanoyl]-2,3,4,5-tetrahydro-1H-3-benzazepin-7-yl}-1,2,4-oxadiazol-5-yl)-2-[(1-methylethyl)oxy]benzonitrile]: the EC50 was no more than 1000 nM.

`CNC(=O)CCN1CCc2c(ccc(-c3nnc(-c4ccc(OC(C)C)c(C#N)c4)s3)c2C)C1` [Example 11, 3-[6-(5-{3-Cyano-4-[(1-methylethyl)oxy]phenyl}-1,3,4-thiadiazol-2-yl)-5-methyl-3,4-dihydro-2(1H)-isoquinolinyl]-N-methylpropanamide] had a 50% effective concentration (EC50) of no more than 100 nM.

`CCCOc1ccc(-c2nc(-c3ccc4c(c3)CCN(C(=O)CN)CC4)no2)cc1C#N` [Example 62, 5-[3-(3-glycyl-2,3,4,5-tetrahydro-1H-3-benzazepin-7-yl)-1,2,4-oxadiazol-5-yl]-2-(propyloxy)benzonitrile] showed a half-maximal effective concentration (EC50) of no more than 100 nM.

As for `Cc1c(-c2nnc(-c3ccc(OC(C)C)c(C#N)c3)s2)ccc2c1CCN(CCCO)C2` [Example 16, 5-{5-[2-(3-Hydroxypropyl)-5-methyl-1,2,3,4-tetrahydro-6-isoquinolinyl]-1,3,4-thiadiazol-2-yl}-2-[(1-methylethyl)oxy]benzonitrile], the EC50 is no more than 1000 nM.

For the compound `CCCOc1ncc(-c2nc(-c3ccc4c(c3)CCN(C(CO)CO)CC4)no2)cc1C#N` [Example 109, 5-(3-{3-[2-hydroxy-1-(hydroxymethyl)ethyl]-2,3,4,5-tetrahydro-1H-3-benzazepin-7-yl}-1,2,4-oxadiazol-5-yl)-2-(propyloxy)-3-pyridinecarbonitrile], the concentration for a half-maximal effect (EC50) is no more than 1000 nM.

In turn, `COCCN1CCc2c(ccc(-c3nnc(-c4ccc(OC(C)C)c(C#N)c4)s3)c2C)C1` [Example 17, 2-[(1-Methylethyl)oxy]-5-(5-{5-methyl-2-[2-(methyloxy)ethyl]-1,2,3,4-tetrahydro-6-isoquinolinyl}-1,3,4-thiadiazol-2-yl)benzonitrile hydrochloride] gave an EC50 of no more than 1000 nM.

Consider `Cc1c(-c2noc(-c3ccc(OC(C)C)c(C#N)c3)n2)ccc2c1CCN(C(CO)CO)C2` [Example 65, 5-(3-{2-[2-hydroxy-1-(hydroxymethyl)ethyl]-5-methyl-1,2,3,4-tetrahydro-6-isoquinolinyl}-1,2,4-oxadiazol-5-yl)-2-[(1-methylethyl)oxy]benzonitrile], for which the half-maximal effective concentration (EC50) was no more than 1000 nM.

Compound `COCCN1CCc2ccc(-c3noc(-c4ccc(OC(C)C)c(C#N)c4)n3)cc2CC1` [Example 21, 2-[(1-Methylethyl)oxy]-5-(3-{3-[2-(methyloxy)ethyl]-2,3,4,5-tetrahydro-1H-3-benzazepin-7-yl}-1,2,4-oxadiazol-5-yl)benzonitrile] had a half-maximal effective concentration (EC50) of no more than 100 nM.

`CCCOc1ccc(-c2nc(-c3ccc4c(c3)CCN(CC(O)CO)CC4)no2)cc1C#N` (stereo not shown) [Example 51, 5-{3-[3-(2,3-dihydroxypropyl)-2,3,4,5-tetrahydro-1H-3-benzazepin-7-yl]-1,2,4-oxadiazol-5-yl}-2-(propyloxy)benzonitrile] had an EC50 of no more than 100 nM.

As for `N#Cc1cc(-c2nc(-c3ccc4c(c3)CCN(CC(O)CO)CC4)no2)ccc1N1CC(F)C1` (stereo not shown) [Example 104, 5-{3-[3-(2,3-dihydroxypropyl)-2,3,4,5-tetrahydro-1H-3-benzazepin-7-yl]-1,2,4-oxadiazol-5-yl}-2-(3-fluoro-1-azetidinyl)benzonitrile], the concentration giving a half-maximal response (EC50) was greater than 10000 nM.

`CCCNc1ncc(-c2nc(-c3ccc4c(c3)CCN(C[C@H](O)CO)CC4)no2)cc1C#N` [Example 143, 5-(3-{34[(2S)-2,3-dihydroxypropyl]-2,3,4,5-tetrahydro-1H-3-benzazepin-7-yl}-1,2,4-oxadiazol-5-yl)-2-(propylamino)-3-pyridinecarbonitrile hydrochloride] gave an EC50 of no more than 1000 nM.

`Cc1c(-c2nnc(-c3ccc(OC(C)C)c(C#N)c3)s2)ccc2c1CCN(CCCC(N)=O)C2` [Example 13, 4-[6-(5-{3-Cyano-4-[(1-methylethyl)oxy]phenyl}-1,3,4-thiadiazol-2-yl)-5-methyl-3,4-dihydro-2(1H)-isoquinolinyl]butanamide] gave an EC50 of no more than 1000 nM.

For the compound `CNC(=O)CCCN1CCc2c(ccc(-c3nnc(-c4ccc(OC(C)C)c(C#N)c4)s3)c2C)C1` [Example 14, 4-[6-(5-{3-Cyano-4-[(1-methylethyl)oxy]phenyl}-1,3,4-thiadiazol-2-yl)-5-methyl-3,4-dihydro-2(1H)-isoquinolinyl]-N-methylbutanamide], the EC50 is no more than 1000 nM.
